# Test results: patent US20240109881A1, “Heteroaryl Compounds as Ligand Directed Degraders of IRAK4” (Bristol-Myers Squibb Company, priority 2022, published 2024)
# Target: T1, IRAK4 (Homo sapiens, UniProt Q9NWZ3)
# T1 construct: endogenous in cells; host or cells: THP-1 cells
# T1 sequence (Q9NWZ3 1-460): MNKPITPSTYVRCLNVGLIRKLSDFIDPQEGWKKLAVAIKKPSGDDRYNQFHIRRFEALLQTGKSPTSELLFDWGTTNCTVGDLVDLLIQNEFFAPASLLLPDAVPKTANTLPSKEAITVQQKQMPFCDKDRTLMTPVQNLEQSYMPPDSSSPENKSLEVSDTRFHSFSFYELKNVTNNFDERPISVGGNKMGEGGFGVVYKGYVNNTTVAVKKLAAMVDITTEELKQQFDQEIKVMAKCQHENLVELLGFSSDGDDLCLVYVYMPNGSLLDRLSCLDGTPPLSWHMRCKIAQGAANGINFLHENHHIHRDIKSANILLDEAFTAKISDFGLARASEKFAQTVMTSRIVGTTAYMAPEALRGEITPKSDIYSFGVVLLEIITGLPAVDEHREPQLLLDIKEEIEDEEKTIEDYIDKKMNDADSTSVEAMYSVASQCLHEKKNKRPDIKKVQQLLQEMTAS
# Assay: LVL THP1 HTRF (THP1 Homogeneous Time Resolved Fluorescence)
# Assay type: cell-based
# Settings: THP1 cells, 18 h incubation with compound; for DC50: read-out: LVL THP1 HTRF EC50
# In short: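 IRAK4 HTRF read-out (665/615 nm ratio, anti-IRAK4 d2 acceptor and K donor, 18 h dark incubation at room temperature) on lysates of THP-1 cells. Cells were treated 18 h at 37° C. with 20 nL compound in DMSO, in colorless RPMI with 10% FBS, with a duplicate CTG plate.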
SMILES,LVL THP1 HTRF YMIN,DC50
C[C@H](C#N)Nc1cc(-n2ncc3cc(C#N)cnc32)ncc1C(=O)N[C@H]1CC[C@H](CCN2CCN(c3ccc([C@@]4(C)CCC(=O)NC4=O)cc3)[C@@H](C)C2)CC1 [P-275],2.9%,14.6 nM
CC1CN(CC[C@H]2CC[C@H](c3cn(-c4cnc(-n5ncc6cc(C#N)cnc65)cc4N[C@H](C)C#N)nn3)CC2)CCC1c1ccc([C@@]2(C)CCC(=O)NC2=O)cc1 (stereo partly drawn) [P-285],10.4%,18.5 nM
C[C@H](C#N)Nc1cc(Nc2ncc(C#N)cc2Cl)ncc1-n1cc([C@H]2CC[C@H](CCN3CCN(c4ccc([C@@]5(C)CCC(=O)NC5=O)cc4)CC3)CC2)nn1 [P-297],6.5%,49.3 nM
C[C@H](C#N)Nc1cc(Nc2ccc(C#N)cn2)ncc1-n1cc([C@H]2CC[C@H](CCN3CCN(c4ccc([C@@]5(C)CCC(=O)NC5=O)cc4)CC3)CC2)nn1 [P-298],3.2%,82.7 nM
C[C@H](C#N)Nc1cc(Nc2ncc(C#N)cc2F)ncc1-n1cc([C@H]2CC[C@H](CCN3CCN(c4ccc([C@@]5(C)CCC(=O)NC5=O)cc4)CC3)CC2)nn1 [P-299],3.5%,36.4 nM
C[C@H](C#N)Nc1cc(Nc2ncc(C#N)cn2)ncc1-n1cc([C@H]2CC[C@H](CCN3CCN(c4ccc([C@@]5(C)CCC(=O)NC5=O)cc4)CC3)CC2)nn1 [P-300],11.7%,243 nM
C[C@@H]1CN(CC[C@H]2CC[C@H](c3cn(-c4cnc(-n5ncc6cc(C#N)cnc65)cc4NC4(C#N)CC4)nn3)CC2)CCN1c1ccc([C@@]2(C)CCC(=O)NC2=O)cc1 [P-301],17.8%,103 nM
C[C@H](C#N)Nc1cc(-n2ncc3cc(C#N)cnc32)ncc1-n1cc([C@H]2CC[C@H](CCN3CCC(c4ccc([C@@]5(C)CCC(=O)NC5=O)cc4)C(F)C3)CC2)nn1 (stereo partly drawn) [P-311],−1.0%,3 nM
C[C@H](C#N)Nc1cc(-c2ccc3cc(C#N)cnn23)ncc1-n1cc([C@H]2CC[C@H](CCN3CCN(c4ccc(C5CCC(=O)NC5=O)cc4)CC3)CC2)nn1 (stereo partly drawn) [P-315],1.4%,2.2 nM
C[C@H](C#N)Nc1cc(-n2ncc3cc(C#N)cnc32)ncc1C(=O)N[C@H]1CC[C@H](CCN2CCN(c3ccc(N4CCC(=O)NC4=O)cc3)CC2)CC1 [P-321],24.2%,645 nM
C[C@H](C#N)Nc1cc(-n2ncc3cc(C#N)cnc32)ncc1-n1cc(C[C@H]2CC[C@H](CN3CCN(c4ccc(C5CCC(=O)NC5=O)cc4)CC3)CC2)nn1 (stereo partly drawn) [P-322],4.4%,16.5 nM
C[C@H](C#N)Nc1cc(-n2ncc3cc(C#N)cnc32)ncc1-n1cc([C@H]2CC[C@H](CCN3CC(Oc4ccc(N5CCC(=O)NC5=O)cc4)C3)CC2)nn1 [P-324],107.9%,1000 nM
C[C@H](C#N)Nc1cc(-n2ncc3cc(C#N)cnc32)ncc1-n1cc([C@H]2CC[C@H](CCN3CC4(CC(c5ccc(N6CCC(=O)NC6=O)cc5)C4)C3)CC2)nn1 [P-329],2.6%,5.9 nM
C[C@H](C#N)Nc1cc(-n2ncc3cc(C#N)cnc32)ncc1-n1cc([C@H]2CC[C@H](CCN3CC=C(c4ccc(N5CCC(=O)NC5=O)cc4)CC3)CC2)nn1 [P-330],2.3%,17.4 nM
Cc1cc(N2CCC(=O)NC2=O)ccc1C1CCN(CC[C@H]2CC[C@H](c3cn(-c4cnc(-n5ncc6cc(C#N)cnc65)cc4N[C@H](C)C#N)nn3)CC2)CC1 [P-334],23.5%,58.7 nM
C[C@H](C#N)Nc1cc(-n2ncc3cc(C#N)cnc32)ncc1-n1cc([C@H]2CC[C@H](CCN3CCC(c4cccc5c(N6CCC(=O)NC6=O)nn(C)c45)CC3)CC2)nn1 [P-335],5.1%,29.8 nM

SMILES,LVL THP1 HTRF YMIN,DC50
Cc1cc(C2CCN(CC[C@H]3CC[C@H](c4cn(-c5cnc(-n6ncc7cc(C#N)cnc76)cc5N[C@H](C)C#N)nn4)CC3)CC2)ccc1N1CCC(=O)NC1=O [P-336],5.5%,25.1 nM
C[C@H](C#N)Nc1cc(-n2ncc3cc(C#N)cnc32)ncc1-n1cc([C@H]2CC[C@H](CCN3CCC(c4ccc(C5(O)CCC(=O)NC5=O)cc4)CC3)CC2)nn1 (stereo partly drawn) [P-339],93.1%,18.6 nM
C[C@H](C#N)Nc1cc(-n2ncc3cc(C#N)cnc32)ncc1-n1cc([C@H]2CC[C@H](CCN3CCC(c4ccc(N5CCC(=O)NC5=O)cc4)CC3)CC2)nn1 [P-340],22.4%,582 nM
C[C@H](C#N)Nc1cc(-n2ncc3cc(C#N)cnc32)ncc1-n1cc([C@H]2CC[C@H](CCN3CCC(c4ccc(N5CCC(=O)NC5=O)nc4)CC3)CC2)nn1 [P-341],81.8%,2.4 nM
C[C@H](C#N)Nc1cc(-n2ncc3cc(C#N)cnc32)ncc1-n1cc([C@H]2CC[C@H](CCN3CCC(c4ccc(N5CCC(=O)NC5=O)c(Cl)c4)CC3)CC2)nn1 [P-342],7.1%,22.1 nM
C[C@H](C#N)Nc1cc(-n2ncc3cc(C#N)cnc32)ncc1-n1cc([C@H]2CC[C@H](CCN3CCC(c4ccc(NC5CCC(=O)NC5=O)cc4)CC3)CC2)nn1 (stereo partly drawn) [P-343],87.0%,103 nM
C[C@H](C#N)Nc1cc(-n2ncc3cc(C#N)cnc32)ncc1-n1cc([C@H]2CC[C@H](CCN3CCC(c4cn(C5CCC(=O)NC5=O)nn4)CC3)CC2)nn1 (stereo partly drawn) [P-344],8.9%,91.2 nM
C[C@H](C#N)Nc1cc(-n2ncc3cc(C#N)cnc32)ncc1-n1cc([C@H]2CC[C@H](CCN3CCC(c4ccc(N5CCC(=O)NC5=O)cn4)CC3)CC2)nn1 [P-345],87.0%,1000 nM
C[C@H](C#N)Nc1cc(-n2ncc3cc(C#N)cnc32)ncc1-n1cc([C@H]2CC[C@H](CCN3CCC(n4cc(C5CCC(=O)NC5=O)cn4)CC3)CC2)nn1 (stereo partly drawn) [P-346],17.5%,92.8 nM
C[C@H](C#N)Nc1cc(-n2ncc3cc(C#N)cnc32)ncc1-n1cc([C@H]2CC[C@H](CCN3CCC(n4cc(NC5CCC(=O)NC5=O)cn4)CC3)CC2)nn1 (stereo partly drawn) [P-348],13.1%,94.9 nM
C[C@H](C#N)Nc1cc(-n2ncc3cc(C#N)cnc32)ncc1-n1cc([C@H]2CC[C@H](CCN3CCC(n4ccc(C5(F)CCC(=O)NC5=O)cc4=O)CC3)CC2)nn1 (stereo partly drawn) [P-349],14.6%,29.7 nM
C[C@H](C#N)Nc1cc(-n2ncc3cc(C#N)cnc32)ncc1-n1cc([C@H]2CC[C@H](CCN3CCC(n4ccc(C5CCC(=O)NC5=O)cc4=O)CC3)CC2)nn1 (stereo partly drawn) [P-350],3.7%,2.2 nM
C[C@H](C#N)Nc1cc(-n2ncc3cc(C#N)cnc32)ncc1-n1cc([C@H]2CC[C@H](CCN3CCC(n4nc(N5CCC(=O)NC5=O)c5ccccc54)CC3)CC2)nn1 [P-351],69.0%,
C[C@H](C#N)Nc1cc(-n2ncc3cc(C#N)cnc32)ncc1-n1cc([C@H]2CC[C@H](CCN3CCC(O)(c4ccc(C5CCC(=O)NC5=O)cc4)CC3)CC2)nn1 (stereo partly drawn) [P-352],2.1%,3.8 nM
C[C@H](C#N)Nc1cc(-n2ncc3cc(C#N)cnc32)ncc1-n1cc([C@H]2CC[C@H](CCN3CCC(O)(c4ccc(N5CCC(=O)NC5=O)cc4)CC3)CC2)nn1 [P-353],88.5%,1000 nM
C[C@H](C#N)Nc1cc(-n2ncc3cc(C#N)cnc32)ncc1-n1cc([C@H]2CC[C@H](CCN3CCCN(c4ccc(C5CCC(=O)NC5=O)cc4)CC3)CC2)nn1 (stereo partly drawn) [P-354],4.0%,13.7 nM
